Experimental data reported in patent publication US5234903A, “Chemically modified hemoglobin as an effective, stable non-immunogenic red blood cell substitute” (Enzon, Inc., priority 1990, dated 1993).
Like-named read-outs stand apart in the source and are kept apart here. Each block holds one molecule with its values, some of them ahead of it.

Key:
bovine hemoglobin = assay: Reducing agents in bovine hemoglobin solution (deoxy Hb, Met Hb, free iron); type: biochemical; details: for Free Iron / Met Hb / deoxy Hb: 30 mM agent, 5% bovine hemoglobin, pH 7.4, 4° C., inert atmosphere, 20 hours
Description: 30 mM of each reducing agent tested, including cysteine, glutathione, N-acetyl cysteine, N-acetyl methionine and sodium ascorbate, was added to 5% bovine hemoglobin solution containing 0.lM Na phosphate, 0.1M NaHCO3 and 0.1M NaCl, with pH=7.4 and at 4° C., under an inert atmosphere. 20 hours later, the deoxyhemoglobin (deoxy Hb), Met Hb and free iron concentrations were determined. Met Hb and deoxy Hb concentrations were measured using an OSM3 Hemoximeter (Radiometer) and free iron was determined by the ferrozine assay method (Carter, 1971, Analyt. Biochem. 40:450-458).

[1] = Oxygen binding: P50 (partial pressure of oxygen at 50% saturation) and Hill coefficient
Description: Hemoglobin constitutes about 90% of the total protein in red blood cells. 100 ml of whole blood is capable of absorbing approximately 21 ml of gaseous oxygen due to the binding ability of hemoglobin. Equally important to the binding of oxygen, hemoglobin is also efficient in releasing the bound oxygen to tissues. The ability of hemoglobin to bind and release oxygen is often quantitatively expressed as the P50, the partial pressure of oxygen which results in fifty percent saturation of hemoglobin.
The resulting modified hemoglobin may then be tested to determine its P50 value so as to confirm that a clinically useful P50 has been achieved. Methods of P50 measurement include standard methods of analysis, such as, for example, methods utilizing the Hemox-Analyzer (TCS Medical Products Co., Huntingdon Valley, Pa.).
Following reduction, the hemoglobin may be reacted with an activated polyalkylene oxide under conditions which maintain the structural integrity of the oxygen binding site. In preferred embodiments of the invention, such conditions consist of a high anion concentration; in a specific embodiment this anion is chloride ion. In preferred embodiments, the chloride ion concentration is at least about 1.0M. […] According to the invention, the activated polyalkylene oxide may have one or more than one functional groups. The degree of modification for each preparation referred to in Table I is approximately 20 percent. This percent modification corresponds to about […] PEG molecules per each molecule of hemoglobin. The percent modification may be calculated according to the number of lysines modified by PEG and is based on a total of 48 surface lysines in bovine hemoglobin. The number may be determined by trinitrobenzene sulfonic acid (TNBS) assay (Habeef et al., 1966, Analyt. Biochem. 14:328-336).
(§1) The polyalkylene oxide modified hemoglobin may then be chemically characterized using methods known in the art. For example, the oxygen dissociation curve may be determined using standard techniques (for example, Imai et al., 1970, Biochim. Biophys. Acta 200: 189-196) allowing calculation of the P50 value. Additional parameters which would be desirable to measure include the methemoglobin content, the viscosity, the osmolality, the pH, and the Hill constant; the effects of changes in pH on the oxygen saturation curve may be determined as described in Bartels (1971, Blood oxygen dissociation curves: Mammals. in "Respiration and Circulation", Altman and Dittmer, Eds., Federation of American Societies for Experimental Biology, Bethesda).
Purification was carried out using a hollow-fiber ultrafiltration device with M.W. cutoff of 50 kD that is commercially available from American Fluid, Richboro, Pa. The advantage of this device relative to conventional tangential flat ultrafiltration membranes is its easy handling of viscous protein solutions such as the 6% PEG-Hb solution. Following purification, the P50 of the PEG-Hb was determined by a Hemox-Analyzer (TCS Medical Products Co., Huntington Valley, Pa.).

[2] = Viscosity and colloid osmotic pressure of PEG-Hb solutions; type: physicochemical; details: for colloid osmotic pressure: 6 percent (g/dl) product
Description: as §1

[3] = Methemoglobin content of PEG-Hb preparations; type: physicochemical; details: in preparation
Description: as §1

[4] = Half-life and intravascular Met-Hb in rats after 70 percent exchange transfusion; type: in vivo; details: rat, in vivo
Description: Blood circulating time of polyalkylene oxide-modified Hb may, for example, and not by way of limitation, be evaluated by monitoring the concentration of hemoglobin in the plasma fraction (at 540 nm) of blood samples sequentially collected following exchange transfusion with modified Hb. Hemoglobin disappearance may be plotted as a function of time.

rats = assay: Blood pressure, heart rate and breathing in rats after 70 percent exchange transfusion; type: in vivo; details: 70% exchange transfusion
Description: Acute toxicity studies may be performed in any suitable experimental animal. Preferably, a range of exposures may be tested; for example, by evaluating animals that have received a 50 or 70 percent exchange transfusion as compared to animals that have received a 100 percent exchange transfusion. Vital signs and visual observations should be recorded, and the animals may be sacrificed after a period of time estimated to correspond to one half-life of the hemoglobin formulation being tested. Histological evaluation using standard techniques may be used to determine the presence or absence of toxic effects on tissues including lung, kidney, liver, or brain.
The results of in vivo studies, in which rats were given a 70 percent exchange transfusion of hemoglobin prepared according to Examples I-V or control (native bovine hemoglobin) are shown in Table V (bracketed numbers are values obtained in rats that were not transfused). Note that the breathing rate decreased slightly, and the blood pressure increased by at most about 30-35 percent relative to control, showing a good physiologic response to the exchange transfusion.

[5] = degree of modification 3%, 0.15M [Cl-]
[6] = degree of modification 6%, 0.15M [Cl-]
[7] = 30 mM sodium bisulfite, 59% deoxyHb before PEGylation
[8] = 50 mM sodium bisulfite, 63% deoxyHb before PEGylation
[9] = 100 mM sodium bisulfite, 75% deoxyHb before PEGylation
[10] = 175 mM sodium bisulfite, 95-100% deoxyHb before PEGylation
[11] = 0% deoxyHb before PEGylation, SC-PEG
[12] = 20% deoxyHb before PEGylation, SC-PEG
[13] = 35% deoxyHb before PEGylation, SC-PEG
[14] = 50% deoxyHb before PEGylation, SC-PEG
[15] = 70% deoxyHb before PEGylation, SC-PEG
[16] = 90% deoxyHb before PEGylation, SC-PEG
[17] = 95% deoxyHb before PEGylation, SC-PEG
[18] = 0% deoxyHb before PEGylation, BSC-PEG
[19] = 25% deoxyHb before PEGylation, BSC-PEG
[20] = 45% deoxyHb before PEGylation, BSC-PEG
[21] = 61% deoxyHb before PEGylation, BSC-PEG
[22] = 76% deoxyHb before PEGylation, BSC-PEG
[23] = 93% deoxyHb before PEGylation, BSC-PEG
[24] = [Cl-] of reaction solution 0.1 M, degree of modification approximately 20 percent
[25] = [Cl-] of reaction solution 0.5 M, degree of modification approximately 20 percent
[26] = [Cl-] of reaction solution 1.0 M, degree of modification approximately 20 percent
[27] = [Cl-] of reaction solution 1.5 M, degree of modification approximately 20 percent
[28] = [Cl-] of reaction solution 2.0 M, degree of modification approximately 20 percent
[29] = native, unmodified (footnote of Table VII)

Molecule: N[C@@H](CS)C(=O)O [Cysteine, cysteine]
Free Iron (bovine hemoglobin): 4.26 µg/dL
Met Hb (bovine hemoglobin): 0.8%
deoxy Hb (bovine hemoglobin): 97.6%
deoxyhemoglobin level, ranking among agents (bovine hemoglobin; in words): highest levels of deoxyhemoglobin
methemoglobin and free iron level, ranking among agents (bovine hemoglobin; in words): lowest levels of methemoglobin and free iron

Molecule: N[C@@H](CCC(=O)N[C@@H](CS)C(=O)NCC(=O)O)C(=O)O [GSH, reduced glutathione]
Met Hb (bovine hemoglobin): 11.9%
deoxy Hb (bovine hemoglobin): 9.7%

Molecule: CC(=O)N[C@@H](CS)C(=O)O [N-acetyl cysteine]
Met Hb (bovine hemoglobin): 18.8%
deoxy Hb (bovine hemoglobin): 0%

Molecule: CSCC[C@H](NC(C)=O)C(=O)O [N-acetyl methionine]
Met Hb (bovine hemoglobin): 19.6%
deoxy Hb (bovine hemoglobin): 0%

Molecule: O=C1O[C@H]([C@@H](O)CO)C([O-])=C1O.[Na+] [Na-Ascorbate, sodium ascorbate]
Free Iron (bovine hemoglobin): 233.7 µg/dL
Met Hb (bovine hemoglobin): 4.1%
deoxy Hb (bovine hemoglobin): 96.7%

Molecule: BSC-PEG(6000)-bHb: bovine hemoglobin modified with bifunctional BSC-PEG of molecular weight 6000
P50 [1, 5]: 38.5 mm Hg
P50 [1, 6]: 36.5 mm Hg
P50 ([1]; degree of modification 7.3%, 0.15M [Cl-]): 36.5 mm Hg

Molecule: Bifunctional PEG-modified bHb: bovine hemoglobin reacted with BSC-PEG
P50 vs monofunctional PEG-modified bHb ([1]; in words): higher P50 than monofunctional PEG-modified bHb

Molecule: Example IX: bovine hemoglobin deoxygenated with sodium bisulfite, then modified using monofunctionally activated SC-PEG
Hill Coefficient [1, 7]: 1.8
P50 of PEG-Hb [1, 7]: 18.5 mmHg
Hill Coefficient [1, 8]: 1.8
P50 of PEG-Hb [1, 8]: 19.0 mmHg
Hill Coefficient [1, 9]: 2.2
P50 of PEG-Hb [1, 9]: 28.0 mmHg
Hill Coefficient [1, 10]: 2.0
P50 of PEG-Hb [1, 10]: 24.0 mmHg

Molecule: SC-PEG(5000)-bHb: bovine hemoglobin modified with monofunctional SC-PEG of molecular weight 5000
P50 [1, 24]: 22 mm Hg
P50 [1, 25]: 24 mm Hg
P50 [1, 26]: 29 mm Hg
P50 [1, 27]: 30 mm Hg
P50 [1, 28]: 30 mm Hg
P50 ([1]; reacted in 0.1M [Cl-], degree of modification 5%): 24 mm Hg
P50 ([1]; reacted in 0.1M [Cl-], degree of modification 10%): 22 mm Hg
P50 ([1]; reacted in 0.1M [Cl-], degree of modification 20%): 22 mm Hg
P50 ([1]; reacted in 0.5M [Cl-], degree of modification 5%): 28 mm Hg
P50 ([1]; reacted in 0.5M [Cl-], degree of modification 10%): 24 mm Hg
P50 ([1]; reacted in 0.5M [Cl-], degree of modification 20%): 24 mm Hg
P50 ([1]; reacted in 1.0M [Cl-], degree of modification 5%): 30 mm Hg
P50 ([1]; reacted in 1.0M [Cl-], degree of modification 10%): 29 mm Hg
P50 ([1]; reacted in 1.0M [Cl-], degree of modification 20%): 29 mm Hg

Further lines, with some results ahead:

P50 [1, 5]: 34 mm Hg
P50 ([1]; degree of modification 4.5%, 0.15M [Cl-]): 34 mm Hg
P50 [1, 6]: 32.5 mm Hg
Molecule: BSC-PEG(4600)-bHb: bovine hemoglobin modified with bifunctional BSC-PEG of molecular weight 4600

Hill coeff. ([1]; Examples I-V and control): 2.58
Molecule: Example I: bovine hemoglobin reduced with cysteine, modified with SC-PEG (MW 5000) at a molar ratio of 20:1
Osmotic Press. [2]: 24 mmHg
Viscosity [2]: 3.6 cp
colloid osmolality [2]: 24 mm Hg
MetHb [3]: 6%
Endotoxin (Endotoxin (LAL test)): < .1 EU
endotoxins (Endotoxin (LAL test)): free of endotoxins
Formation of Met-bHb in rat intravasculature [4]: substantially lower than that of unmodified hemoglobin
Met-Hb at Half-life [4]: 29.3%
Half-life ([4]; iv): 8.9 h
Breathing (rats): 117 min⁻¹
Heart Rate (rats): 392 min⁻¹
Mean Arterial Press. (rats): 102 mmHg

Hill coeff. [1, 11]: 1.7
P50 [1, 11]: 18 mmHg
Hill coeff. [1, 12]: 1.7
P50 [1, 12]: 18 mmHg
Hill coeff. [1, 13]: 1.7
P50 [1, 13]: 18 mmHg
Hill coeff. [1, 14]: 2.0
P50 [1, 14]: 24 mmHg
Hill coeff. [1, 15]: 2.2
P50 [1, 15]: 28 mmHg
Hill coeff. [1, 16]: 2.0
P50 [1, 16]: 22 mmHg
Hill coeff. [1, 17]: 2.0
P50 [1, 17]: 22 mmHg
Molecule: Example VIII: bovine hemoglobin partially deoxygenated by gas exchange, modified with SC-PEG (M.W. 5141), SC-PEG:Hb 12:1
colloid osmotic pressure [2]: 24 mmHg
Viscosity ([2]; 6 percent (g/dl), 37° C.): 4.2 cp

Hill coeff. [1, 18]: 1.8
P50 [1, 18]: 20 mmHg
Hill coeff. [1, 19]: 1.9
P50 [1, 19]: 22 mmHg
Hill coeff. [1, 20]: 2.0
P50 [1, 20]: 25 mmHg
Hill coeff. [1, 21]: 2.3
P50 [1, 21]: 30 mmHg
Hill coeff. [1, 22]: 2.3
P50 [1, 22]: 31 mmHg
Hill coeff. [1, 23]: 2.0
P50 [1, 23]: 26 mmHg
Molecule: Example X: bovine hemoglobin deoxygenated by gas exchange, modified with BSC-PEG (M.W. 5000), BSC-PEG:Hb 2.5:1, crosslinked
colloid osmotic pressure [2]: 20 mmHg
Viscosity ([2]; 6 percent (g/dl), 37° C.): 4.5 cp

P50 [1, 24]: 24 mm Hg
P50 [1, 25]: 30 mm Hg
P50 [1, 26]: 32 mm Hg
P50 [1, 27]: 31 mm Hg
P50 [1, 28]: 32 mm Hg
Molecule: SC-PEG(2000)-bHb: bovine hemoglobin modified with monofunctional SC-PEG of molecular weight 2000

P50 [1, 24]: 24 mm Hg
P50 [1, 25]: 28 mm Hg
P50 [1, 26]: 30 mm Hg
P50 [1, 27]: 30 mm Hg
P50 [1, 28]: 30 mm Hg
Molecule: SC-PEG(4000)-bHb: bovine hemoglobin modified with monofunctional SC-PEG of molecular weight 4000

Hill Coefficient [1, 29]: 2.3
P50 [1, 29]: 28 mmHg
Molecule: native stromafree bHb: native stromafree bHb from Biopure, Boston, MA [reference compound]
